Data on 2 compounds can be found in patent US20060116392A1, “Methods for treating anxiety disorders and related article of manufacture” (priority 2004, published 2006).

Structures are written as SMILES.

For test [1], the system named is morphine CPP. Kind of test: Induction of morphine conditioned place preference (CPP); inhibitor given after conditioning. Type of test: in vivo, Long Evans rats. The note with it: for CPP score (time spent in drug associated-chamber), mean±SEM: single s.c. dose at end of four-day conditioning, anisomycin and cycloheximide groups combined; for effect on morphine CPP: single s.c. dose at the end of four-day conditioning, tested at 24 hours. The method, then: . CPP was tested after 24 hours. To determine whether the effect was stable, the animals were retested 1 week later.
(§1) Because both anisomycin and cycloheximide produced a similar effect, the CPP score of the two groups were combined. […] Further experimentation was needed to determine whether a more extended inhibition of protein synthesis was able to persistently block CPP. Groups of rats were treated as above but received two injections of cycloheximide, one immediately after the last conditioning session and the second 5 hours later. In parallel, the rates of protein synthesis inhibition, over time, following a single or double injection were established. […] With a double injection, 5 hours apart, the rate of protein synthesis inhibition at 6 hours was maintained at 71%. The results after two injections were similar to those after a single injection; in fact, the CPP of rats that received two injection of cycloheximide was inhibited at 24 hours, but recovered a week later (data not shown).
Experimentation was needed to test the possibility that blocking protein synthesis after each daily conditioning produced a stable loss of CPP. Groups of rats received an injection of either cycloheximide or vehicle every day at the end of each conditioning trial and were then tested 24 hours, 1 week and 4 weeks later. […] This inhibition persisted at 1 week (254.8±32.8 sec and 429.4±33.1 sec, respectively, p<0.01) and 4 weeks (243.3±21.8 sec and 416.8±31.4 sec, respectively, p<0.01) post-conditioning (FIG. 1B).
(§2) Adult Long Evans rats (200-250 grams) were used for all the experiments. On day 1, the rats received a single pre-exposure test in a box composed of two distinct compartments (Pre-conditioning). The time spent in each chamber over 10 minutes was recorded (unconditioned preference) and then the animals were returned to their homecages. Animals showing a strong unconditioned preference (>540 s) were discarded. On the subsequent 4 days, place preference conditioning was conducted using an unbiased procedure. In each experimental group, the animals received a subcutaneous injection of either morphine (10 mg/kg) or saline (vehicle solution). Half of both groups were confined for 30 minutes in the spontaneously preferred compartment and the other half in the non-preferred compartment. Testing consisted of allowing the animals free access to both chambers for 10 minutes and recording the amount of time that the animals spend in the conditioned chamber (CPP score). All protocols complied with the N.I.H. Guide for the Care and Use of Laboratory Animals and were approved by the Mount Sinai School of Medicine Animal care Committees.
(§3) Anisomycin and Cycloheximide were injected s.c. at 210 mg/Kg (Milekic and Alberini, 2002) and 2.8 mg/Kg (Squire et al., 1980), respectively. Anisomycin was dissolved as previously described (Milekic and Alberini, 2002). Cycloheximide was dissolved in DMSO and finally diluted in 1% DMSO/saline. Vehicle solutions were prepared accordingly.

For test [2], the system named is morphine CPP. The experiment in a line: Consolidated morphine CPP after a single reconditioning session; inhibitor given after reconditioning. Type of test: in vivo, Long Evans rats.
Text: However, it is important to consider that during morphine CPP, the drug may serve as an internal reinforcer and the animal experiences a strong reward. It remained unknown whether CPP may become labile if the rewarding state of the drug experience is concomitantly reactivated with the contextual cues (reconditioning). Therefore, it was examined whether a previously formed CPP becomes labile after a reconditioning session. Rats were conditioned to morphine for 4 days and, 1 week later, were exposed to another, single conditioning session. Immediately after this session, half of the animals received an injection of inhibitor (cycloheximide or anisomycin) and the other half of vehicle solution and were then all retested 24 hours and 1 week later.
It was then tested whether blocking protein synthesis after reconditioning for a longer time would result in a stable disruption of CPP. Groups of rats were treated as above but received two injections of cycloheximide, one immediately after reconditioning and the second 5 hours later, a protocol that, as described in the first set of experiments, block 70% of protein synthesis for several hours.
as §2, §3

In test [3] the test system is morphine CPP. The experiment in a line: Maintenance of morphine CPP after contextual reactivation (Test 1); inhibitor given after recall. Type of test: in vivo, Long Evans rats. The note with it: for CPP score, mean±SEM: injection immediately after Test 1 (1 week after conditioning), Test 2, 24 hours later, cycloheximide and anisomycin scores combined; for change in CPP score: injection immediately after Test 1, re-tested 24 hours later (Test 2). The method, then:
The purpose of second set of experiments was to determine whether morphine CPP becomes labile if recalled. Groups of rats were conditioned to morphine for 4 days. […] This test recalled the experience (Test 1), or, in other words, reactivated CPP. Immediately after Test 1, half of the rats received an injection of cycloheximide or anisomycin and half were injected with vehicle. The animals were re-tested 24 hours later (Test 2). […] (Test1-vehicle: 394.4±42.6 sec; Test1-inhibitor: 387.8±25.8 sec; Test2-vehicle 413.3±35.9 sec; Test2-inhibitor 425.9±25.3 sec) (FIG. 2). Because both cycloheximide and anisomycin-treated rats performed similarly, their scores were combined.
as §2, §3

Another test deals with protein synthesis. The experiment in a line: Inhibition of protein synthesis in brain (L-[35S]methionine incorporation). Type of test: in vivo, rats. The method, then: as §1
Inhibition of protein synthesis was assessed according to Rosenblum et al. (1993) with modifications. Rats were injected with 125 μCi L-[^35S]methionine (i.p.) and immediately after received an injection of either protein synthesis inhibitors, (cycloheximide or anisomycin) or vehicle solution. The rats were sacrificed one hour after the last inhibitor injection. The brains were homogenized in 5 volumes of cold lysis buffer (1% SDS, 60 mM Tris.Cl pH 7.4, 62.4 mM imidazole, 40 mM DTT, 10% glycerol). The homogenates were boiled for 5 min and centrifuged at 18,000 g for 20 min at room temperature. Equal amount of proteins were precipitated with 20% TCA and the radioactivity was counted. The inhibition of protein synthesis was calculated as: [1−(CPMinhibitor/CPMvehicle)]×100.

The subject of test [4] is morphine CPP. The experiment in a line: Morphine CPP, conditioning context omitted (injections in homecage). Type of test: in vivo, Long Evans rats. The method, then: (3C) The conditioning context was omitted and rats (n=8) were injected in their home cage with morphine and 30 min later with cycloheximide at the same time point as in (3A) and (3B). CPP was tested 24 hr after injection (post-injection).
(3D) Rats were injected only with cycloheximide (n=9) in the home cage at the same time points as in (3A) and (3B) without receiving either morphine or exposure to the conditioning context. CPP was tested 24 hr after the last injection (post-injection).
To investigate whether the blocking effect of the inhibitors on CPP was context-specific, the conditioning context was omitted, that is morphine and cycloheximide were administered in the homecages at the same times after conditioning.
as §2
Anisomycin and Cycloheximide were injected s.c. at 210 mg/Kg (Milekic and Alberini, 2002) and 2.8 mg/Kg (Squire et al., 1980), respectively. Anisomycin was dissolved as previously described (Milekic and Alberini, 2002). […]

Setting [5] is: single injection immediately after reconditioning, 1 week later, cycloheximide or anisomycin combined.
The mark [6] stands for this setting: single injection immediately after reconditioning, 24 hours after reconditioning, cycloheximide or anisomycin combined.
Setting [7] is: injection every day at the end of each conditioning trial, 24 hours after conditioning.

Regarding `COc1ccc(C[C@H]2NC[C@H](O)[C@H]2OC(C)=O)cc1` [anisomycin], the “CPP score (time spent in drug associated-chamber), mean±SEM” value came to 280.1 ± 17.5 s in the test with morphine CPP [1] (24 hours) and 358.9 ± 28.0 s in the test on morphine CPP [1] (re-tested 1 week later). The “effect on morphine CPP” value in the test with morphine CPP [1] is listed as “completely blocked”. Further, the results for the “CPP score, mean±SEM” value in the test on morphine CPP [2] (setting [5]), in the test with morphine CPP [2] (setting [6]) and in the test with morphine CPP [3] were 365.4 ± 45.1 s, 261.5 ± 33.9 s and 425.9 ± 25.3 s, respectively. For the same compound, the “change in CPP score” value in the test with morphine CPP [3] is listed as “No change”.

With `C[C@@H]1C[C@@H]([C@H](O)CC2CC(=O)NC(=O)C2)C(=O)[C@@H](C)C1` [cycloheximide], the “inhibition of protein synthesis” value in the test on protein synthesis (double injection, 5 hours apart, at 6 hours) is reported as 71%; with protein synthesis (single injection, at 1 hour), 70%; in the test on protein synthesis (single injection, at 6 hours after injection), 23%. In the test with protein synthesis (two injections, 5 hours apart, for several hours), this compound gave a protein synthesis blocked of 70%. Besides, the “effect on CPP” value with morphine CPP [4] (morphine and cycloheximide administered in the homecages, conditioning context omitted) was “No blocking effect”; with morphine CPP [1] (setting [7]), “complete inhibition”; with morphine CPP [1] (two injections (immediately after last conditioning session and 5 hours later), a week later, data not shown), “recovered”; in the test on morphine CPP [1] (two injections (immediately after last conditioning session and 5 hours later), at 24 hours, data not shown), “inhibited”; with morphine CPP [2] (double injection after reconditioning, tested 24 hours to 4 weeks), “completely and persistently blocked”. For the same compound, the “CPP score, mean±SEM” value in the test with morphine CPP [4] (morphine and cycloheximide administered in the homecages, conditioning context omitted, post-conditioning (24 hr after injection)) was 362.22 ± 17.4 s; in the test on morphine CPP [4] (only the inhibitor in the homecage, morphine and context omitted, post-conditioning (24 hr after last injection)), 399.8 ± 31.6 s; in the test with morphine CPP [1] (injection every day at the end of each conditioning trial, 1 week post-conditioning) it was 254.8 ± 32.8 s; in the test on morphine CPP [1] (injection every day at the end of each conditioning trial, 4 weeks post-conditioning), 243.3 ± 21.8 s; in the test on morphine CPP [1] (setting [7]), 226.6 ± 47.2 s; in the test on morphine CPP [2] (double injection (immediately after reconditioning and 5 hours later), 24 hours), 264.1 ± 13.3 s. In addition, the “CPP score, mean±SEM” value was 239.9 ± 34.4 s in the test with morphine CPP [2] (double injection after reconditioning, 1 week); 270.1 ± 27.2 s in the test with morphine CPP [2] (double injection after reconditioning, 2 weeks); 278.4 ± 32.5 s in the test on morphine CPP [2] (double injection after reconditioning, 4 weeks); 365.4 ± 45.1 s in the test with morphine CPP [2] (setting [5]); 261.5 ± 33.9 s in the test on morphine CPP [2] (setting [6]); 425.9 ± 25.3 s in the test on morphine CPP [3]. The “CPP score (time spent in drug associated-chamber), mean±SEM” value in the test on morphine CPP [1] (24 hours) was determined as 280.1 ± 17.5 s; with morphine CPP [1] (re-tested 1 week later), 358.9 ± 28.0 s. Further, in the test on morphine CPP [1], the “effect on morphine CPP” value is recorded as “completely blocked”. Moreover, the “change in CPP score” value with morphine CPP [3] is “No change”.
